# Earlier results, collected in patent publication US8592481B2 (Depomed, Inc., priority 2005, dated 2013).
# Conditions: in vivo
substance,measurement,value
1-(aminomethyl)cyclohexane acetic acid [gabapentin],circulating gabapentin bound to plasma proteins,3%
